Measured values taken from patent US7687456B2, “Compounds for enzyme inhibition” (Proteolix, Inc., priority 2005, dated 2010).

System: proteasome CT-L activity
Experiment: Proteasome CT-L inhibition in blood of mice one hour after oral dosing
Assay type: in vivo
Conditions: one hour post-dosing, blood lysate, substrate LLVY-AMC, relative to vehicle-dosed cohort
Method: Compounds were formulated in 10% PS80/NaCitrate (pH 3) vehicle and administered to mice orally (PO) (3 animals/cohort). One hour post-dosing, the animals were sacrificed and the following tissues harvested: blood, brain, adrenal gland, heart and liver. Whole blood (˜200 μl) was washed twice with PBS and lysed by hypotonic shock (300 μl 50 mM Tris pH 8, 5 mM EDTA). Blood lysates were stored at −80° C. until assayed. Blood lysates were clarified by centrifugation in a microcentrifuge. The CT-L specific activity of proteasome in each lysate was evaluated by determining: a) the protein concentration by modified Bradford assay with bovine gamma globulin as a standard; and b) the rate of cleavage of the fluorogenic proteasome substrate LLVY-AMC. The percent proteasome activity for the analog-treated animals was calculated by dividing of the average specific activity for each analog-dosed cohort by the average specific activity of the vehicle-dosed cohort. Percent proteasome inhibition was calculated by subtracting percent proteasome activity from 100. Equivalents

SMILES	proteasome CT-L inhibition (40 mg/kg PO) [%]	proteasome CT-L inhibition (20 mg/kg PO) [%]
COC[C@H](NC(=O)c1cc(C)on1)C(=O)N[C@@H](Cc1ccccc1)C(=O)N[C@@H](CC(C)C)C(=O)[C@@]1(C)CO1 [Compound 010]	> 90	
CC(C)C[C@H](NC(=O)c1cc(CN2CCOCC2)on1)C(=O)N[C@@H](Cc1ccccc1)C(=O)N[C@@H](CC(C)C)C(=O)[C@@]1(C)CO1 [Compound 023]	> 80	
COC[C@H](NC(=O)c1cc(C)on1)C(=O)N[C@H](C(=O)N[C@@H](CC(C)C)C(=O)[C@@]1(C)CO1)C(C)C [Compound 029]		> 70
CC(C)C[C@H](NC(=O)c1cc(CN2CCOCC2)on1)C(=O)N[C@@H](Cc1cscn1)C(=O)N[C@@H](CC(C)C)C(=O)[C@@]1(C)CO1 [Compound 035]	> 90	
COC[C@H](NC(=O)c1cc(C)on1)C(=O)N[C@@H](Cc1cscn1)C(=O)N[C@@H](CC(C)C)C(=O)[C@@]1(C)CO1 [Compound 039]		> 75
COC[C@H](NC(=O)c1cc(C)on1)C(=O)N[C@@H](C)C(=O)N[C@@H](CC(C)C)C(=O)[C@@]1(C)CO1 [Compound 045]		> 80
Cc1cc(C(=O)N[C@@H](Cc2ccccn2)C(=O)N[C@@H](Cc2ccccc2)C(=O)N[C@@H](CC(C)C)C(=O)[C@@]2(C)CO2)no1 [Compound 055]		> 80
CC(C)C[C@H](NC(=O)[C@H](Cc1ccccc1)NC(=O)[C@@H](NC(=O)c1cc(CN2CCOCC2)on1)C(C)C)C(=O)[C@@]1(C)CO1 [Compound 061]	> 80	
COCC[C@H](NC(=O)c1cc(C(C)C)on1)C(=O)N[C@@H](Cc1ccccc1)C(=O)N[C@@H](CC(C)C)C(=O)[C@@]1(C)CO1 [Compound 068]	> 70	
COC[C@H](NC(=O)c1cc(C)on1)C(=O)N[C@@H](COC)C(=O)N[C@@H](CC(C)C)C(=O)[C@@]1(C)CO1 [Compound 075]		> 80
COC[C@H](NC(=O)c1ccon1)C(=O)N[C@@H](COC)C(=O)N[C@@H](CC(C)C)C(=O)[C@@]1(C)CO1 [Compound 083]		> 80
COC[C@H](NC(=O)c1cc(C)no1)C(=O)N[C@@H](COC)C(=O)N[C@@H](CC(C)C)C(=O)[C@@]1(C)CO1 [Compound 085]		> 50
COC[C@H](NC(=O)c1cc(C)on1)C(=O)N[C@@H](COC)C(=O)N[C@@H](Cc1ccccc1)C(=O)[C@@]1(C)CO1 [Compound 088]		> 80
COC[C@H](NC(=O)c1cc(C)on1)C(=O)N[C@@H](COC)C(=O)N[C@@H](Cc1ccc(F)cc1)C(=O)[C@@]1(C)CO1 [Compound 091]		> 80
